Test [1] addresses Syk (356-635 amino acids) catalytic domain (Homo sapiens (Human), UniProt P43405). Nature of the test: Inhibition of enzymatic Syk kinase activity (radiometric). In kind it is biochemical. To be noted: read-out: IC50 Syk. An outline of the steps:
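Radiometric filter-binding format: 32P transfer from γ-32P-ATP onto pG4T, scintillation-counted after acid washes of P81 paper. Syk kinase domain (356-635), 0.035–7.5 ng per reaction, was exposed to compound for 30 minutes at room temperature before a 10-minute, 30° C. reaction with ATP (100 μM stock). Inhibition derived from counts with versus without compound.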

The next test deals with JAK2 (Homo sapiens (Human), UniProt O60674). The experiment in a line: Inhibition of enzymatic JAK2 kinase activity (TR-FRET). In kind it is biochemical. To be noted: read-out: IC50 JAK. From the text:
The objective of this assay was to screen compounds in a Time-resolved fluorescence resonance energy transfer (TR-FRET) Enzymatic assay method for their potential to inhibit JAK2 (Janus kinase) activity.
TR-FRET assays are homogeneous proximity assays where Eu-labeled antiphosphotyrosine antibody binds to the phosphorylated substrates labeled with Ulight fluorescence acceptor. Eu can transfer energy to Ulight accepter in the complex and the interaction of two dye-labeled binding partners is detected by the energy transfer between a donor and an acceptor dye, and the subsequent light emission by the acceptor dye. The intensity of the light emission is proportional to the level of Ulight peptide phosphorylation.
Two μL of 10% DMSO in blank, substrate control and positive control wells and 2 μL of test compound in test wells was added. Thirteen μL of assay buffer in blank and substrate control wells and 13 μL of Enzyme buffer mix in positive and test wells was added. The reaction mixture was incubated for 30 minutes at RT on a plate shaker. Ultra Light-pGT substrate (5 μL) [poly Glu-Tyr (4:1) labeled with U Light TM dye, a tyrosine kinase substrate] and ATP mix was added to all wells. The reaction plate was incubated for 60 minutes at RT on a plate shaker. The reaction was stopped by adding 40 mM EDTA (10 μL) in buffer. Ten μL of antibody was added to all the wells. The plate was read in a Wallac® 1420 Multilabel Counter Victor 3 instrument (Ex: 340 nm Em: 615 & 665 nm) The following calculations were made:
F@ 665 Value-Buffer blank
F@ 615 Value-Buffer blank
Ratio of F@665/F@615-Substrate Blank
% Activity=(Test Sample/Positive control)*100%
Inhibition=(100−% Activity)
In general terms: TR-FRET usually uses a lanthanide donor and a delayed reading to cut background.

The values that follow come from patent US10183944B2 (Asana Biosciences, LLC, priority 2011, dated 2019).

pIC50: −log10 of the molar value. Counter-ions that a name gives are not always drawn.

Sequence of JAK2 (O60674 808-1132): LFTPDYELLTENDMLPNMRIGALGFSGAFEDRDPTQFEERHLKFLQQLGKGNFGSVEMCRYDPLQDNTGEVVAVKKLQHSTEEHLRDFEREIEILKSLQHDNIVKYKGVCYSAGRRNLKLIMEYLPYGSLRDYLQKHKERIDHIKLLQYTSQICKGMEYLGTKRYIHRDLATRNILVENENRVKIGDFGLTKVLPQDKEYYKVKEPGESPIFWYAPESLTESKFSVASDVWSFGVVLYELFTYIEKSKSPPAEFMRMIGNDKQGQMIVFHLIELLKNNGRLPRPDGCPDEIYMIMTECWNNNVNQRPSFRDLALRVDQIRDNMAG

Usually pIC50 stands for the negative decadic logarithm of the IC50, by convention in mol/L. With `COc1ccccc1-c1nc(Nc2ccc(CN3CCNCC3)cc2)c2c(=O)[nH]ncc2n1` [Example 36, 2-(2-methoxyphenyl)-4-(4-(piperazin-1-ylmethyl)phenylamino)pyrimido[4,5-d]pyridazin-5(6H)-one hydrochloride], the pIC50 in test [1] is less than 7.00; at JAK2 it was greater than 7.00.

For the compound `CCN1CCN(c2ccc(Nc3nc(-c4ccsc4)nc4cn[nH]c(=O)c34)cc2)CC1` [Example 37, 4-(4-(4-ethylpiperazin-1-yl)phenylamino)-2-(thiophen-3-yl)pyrimido[4,5-d]pyridazin-5(6H)-one hydrochloride], the negative logarithm of the IC50 (pIC50) in test [1] was greater than 8.00; at JAK2, greater than 7.00.

Turning to `O=c1[nH]ncc2nc(-c3ccc(Cl)cc3)nc(Nc3ccc(CN4CCNCC4)cc3)c12` [Example 40, 2-(4-chlorophenyl)-4-(4-(piperazin-1-ylmethyl)phenylamino)pyrimido[4,5-d]pyridazin-5(6H)-one hydrochloride], the negative logarithm of the IC50 (pIC50) in test [1] is greater than 7.30; on JAK2 it was less than 7.00.

As for `COc1ccc(-c2nc(Nc3ccc(CN4CCNCC4)cc3)c3c(=O)[nH]ncc3n2)cc1` [Example 41, 2-(4-methoxyphenyl)-4-(4-(piperazin-1-ylmethyl)phenylamino)pyrimido[4,5-d]pyridazin-5(6H)-one hydrochloride], the pIC50 in test [1] is greater than 7.00; on JAK2 it was less than 7.00.

For `O=c1[nH]ncc2nc(N3CC[S+]([O-])CC3)nc(Nc3ccc(CN4CCNCC4)cc3)c12` [Example 44, 2-(1-oxidothiomorpholino)-4-((4-(piperazin-1-ylmethyl)phenyl)amino) pyrimido[4,5-d]pyridazin-5(6H)-one hydrochloride], the pIC50 (in test [1]; on JAK2) was less than 7.00 each time.

Take `CN1CCN(c2nc(Nc3ccc(CN4CCNCC4)cc3)c3c(=O)[nH]ncc3n2)CC1` [Example 45, 2-(4-methylpiperazin-1-yl)-4-((4-(piperazin-1-ylmethyl)phenyl)amino) pyrimido[4,5-d]pyridazin-5(6H)-one hydrochloride]: the pIC50 (in test [1]; at JAK2) was less than 7.00 each time.

On to `CN(C)c1nc(Nc2ccc(CN3CCNCC3)cc2)c2c(=O)[nH]ncc2n1` [Example 49, 2-(dimethylamino)-4-((4-(piperazin-1-ylmethyl)phenyl)amino)pyrimido[4,5-d]pyridazin-5(6H)-one hydrochloride], for which the pIC50 (in test [1]; at JAK2) was greater than 7.00 each time.

For the compound `O=C(O)C1CCN(c2nc(Nc3ccc(CN4CCNCC4)cc3)c3c(=O)[nH]ncc3n2)CC1` [Example 51, 1-(5-oxo-4-((4-(piperazin-1-ylmethyl)phenyl)amino)-5,6-dihydropyrimido[4,5-d]pyridazin-2-yl)piperidine-4-carboxylic acid hydrochloride], the pIC50 (in test [1]; at JAK2) was less than 7.00 in each case.

Take `COc1ccccc1-c1nc(Nc2ccc(N3CCC4(CC3)CC4C(=O)O)cc2)c2c(=O)[nH]ncc2n1` (stereo not drawn) [Example 53, 6-(4-((2-(2-methoxylphenyl)-5-oxo-5,6-dihydropyrimido[4,5-d]pyridazin-4-yl)amino)phenyl)-6-azaspiro[2.5]octane-1-carboxylic acid]: the pIC50 in test [1] is less than 7.00; on JAK2 it was greater than 7.00.

Turning to `O=c1[nH]ncc2nc(-c3ccc(CN4CCOCC4)cc3)nc(Nc3ccc(CN4CCNCC4)cc3)c12` [Example 55, 2-(4-(morpholinomethyl)phenyl)-4-((4-(piperazin-1-ylmethyl)phenyl)amino) pyrimido[4,5-d]pyridazin-5(6H)-one hydrochloride], the pIC50 (in test [1]; on JAK2) was less than 7.00 throughout.

In the case of `N#CC1CCN(c2nc(Nc3ccc(CN4CCNCC4)cc3)c3c(=O)[nH]ncc3n2)CC1` [Example 56, 1-(5-oxo-4-((4-(piperazin-1-ylmethyl)phenyl)amino)-5,6-dihydropyrimido[4,5-d]pyridazin-2-yl)piperidine-4-carbonitrile hydrochloride], the pIC50 in test [1] was less than 7.00; on JAK2 it was greater than 7.30.

For `O=c1[nH]ncc2nc(N3CCCNCC3)nc(Nc3ccc(CN4CCNCC4)cc3)c12` [Example 59, 2-(1,4-diazepan-1-yl)-4-((4-(piperazin-1-ylmethyl)phenyl)amino)pyrimido[4,5-d]pyridazin-5(6H)-one dihydrochloride], the results for the pIC50 (in test [1]; at JAK2) were greater than 7.30 and less than 7.00, respectively.

For the compound `N#CCN1CCN(c2nc(Nc3ccc(N4CCC(CC(=O)O)CC4)cc3)c3c(=O)[nH]ncc3n2)CC1` [Example 70, 2-(1-(4-((2-(4-(cyanomethyl)piperazin-1-yl)-5-oxo-5,6-dihydropyrimido[4,5-d]pyridazin-4-yl)amino)phenyl)piperidin-4-yl)acetic acid], the pIC50 in test [1] is greater than 7.00; on JAK2, less than 7.00.

Take `O=C(O)C1CC12CCN(c1ccc(Nc3nc(N4CCCNCC4)nc4cn[nH]c(=O)c34)cc1)CC2` (stereo not drawn) [Example 72, 6-(4-((2-(1,4-diazepan-1-yl)-5-oxo-5,6-dihydropyrimido[4,5-d]pyridazin-4-yl)amino)phenyl)-6-azaspiro[2.5]octane-1-carboxylic acid hydrochloride]: the pIC50 in test [1] is greater than 7.30; at JAK2, greater than 7.00.

As for `O=C(O)CC1CCN(Cc2ccc(Nc3nc(N4CCCCCC4)nc4cn[nH]c(=O)c34)cc2)CC1` [Example 77, 2-(1-(4-((2-(azepan-1-yl)-5-oxo-5,6-dihydropyrimido[4,5-d]pyridazin-4-yl)amino)benzyl)piperidin-4-yl)acetic acid], the values for the negative logarithm of the IC50 (pIC50) (in test [1]; at JAK2) were greater than 7.30 and greater than 8.00, respectively.

On to `O=C(O)C1CC12CCN(c1ccc(Nc3nc(C4CCCCC4)nc4cn[nH]c(=O)c34)cc1)CC2` (stereo not drawn) [Example 79, 6-(4-((2-cyclohexyl-5-oxo-5,6-dihydropyrimido[4,5-d]pyridazin-4-yl)amino)phenyl)-6-azaspiro[2.5]octane-1-carboxylic acid], for which the pIC50 in test [1] is greater than 7.30; on JAK2, greater than 8.00.

With `N#CCC1CCN(c2ccc(Nc3nc(N4CCCCCC4)nc4cn[nH]c(=O)c34)cc2)CC1` [Example 80, 2-(1-(4-((2-(azepan-1-yl)-5-oxo-5,6-dihydropyrimido[4,5-d]pyridazin-4-yl)amino)phenyl)piperidin-4-yl)acetonitrile], the pIC50 is greater than 7.30 in test [1] and greater than 8.00 on JAK2.

Take `O=C(O)C1CC12CCN(c1ccc(Nc3nc(C4CCCCCC4)nc4cn[nH]c(=O)c34)cc1)CC2` (stereo not drawn) [Example 81, 6-(4-((2-cycloheptyl-5-oxo-5,6-dihydropyrimido[4,5-d]pyridazin-4-yl)amino)phenyl)-6-azaspiro[2.5]octane-1-carboxylic acid]: the results for the pIC50 (in test [1]; at JAK2) were greater than 7.30 and greater than 8.00, respectively.

For `CC(C)(O)C(=O)N1CCN(Cc2ccc(Nc3nc(-c4ccccc4)nc4cn[nH]c(=O)c34)cc2)CC1` [Example 83, 4-((4-((4-(2-hydroxy-2-methylpropanoyl)piperazin-1-yl)methyl)phenyl)amino)-2-phenylpyrimido[4,5-d]pyridazin-5(6H)-one], the pIC50 (in test [1]; at JAK2) was greater than 7.30 throughout.

`CC(C)(O)C(=O)N1CCN(Cc2ccc(Nc3nc(N4CCCCCC4)nc4cn[nH]c(=O)c34)cc2)CC1` [Example 84, 2-(azepan-1-yl)-4-((4-((4-(2-hydroxy-2-methylpropanoyl)piperazin-1-yl)methyl)phenyl)amino)pyrimido[4,5-d]pyridazin-5(6H)-one]: the figures for the pIC50 (in test [1]; on JAK2) were greater than 7.30 and greater than 8.00, respectively.

For `CN1CCN(Cc2ccc(Nc3nc(N4CCCCCC4)nc4cn[nH]c(=O)c34)cc2)CC1` [Example 85, 2-(azepan-1-yl)-4-((4-((4-methylpiperazin-1-yl)methyl)phenyl)amino)pyrimido[4,5-d]pyridazin-5(6H)-one], the pIC50 in test [1] is greater than 7.30; at JAK2, greater than 8.00.

As to `O=C(O)CN1CCC(c2ccc(Nc3nc(-c4ccccc4)nc4cn[nH]c(=O)c34)cc2)CC1` [Example 86, 2-(4-(4-((5-oxo-2-phenyl-5,6-dihydropyrimido[4,5-d]pyridazin-4-yl)amino)phenyl)piperidin-1-yl)acetic acid], the pIC50 (in test [1]; on JAK2) was greater than 7.30 throughout.

Regarding `O=C(O)CC1CCC(c2ccc(Nc3nc(-c4ccccc4)nc4cn[nH]c(=O)c34)cc2)CC1` (stereo not drawn) [Example 87, 2-(4-(4-((5-oxo-2-phenyl-5,6-dihydropyrimido[4,5-d]pyridazin-4-yl)amino)phenyl)cyclohexyl)acetic acid], the pIC50 is greater than 7.30 in test [1] and greater than 7.00 on JAK2.

Regarding `CC(C)(C#N)C1CCN(c2nc(Nc3ccc(N4CCC(CC(=O)O)CC4)cc3)c3c(=O)[nH]ncc3n2)CC1` [Example 100, 2-(1-(4-((2-(4-(2-cyanopropan-2-yl)piperidin-1-yl)-5-oxo-5,6-dihydropyrimido[4,5-d]pyridazin-4-yl)amino)phenyl)piperidin-4-yl)acetic acid], the pIC50 (in test [1]; at JAK2) was greater than 7.30 each time.
